Source: PubChem BioAssay (NCI)
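Tested at 5 concentrations; 48 h exposure; 96-well plates; endpoints linearly interpolated, else capped at highest concentration. GI50 = concentration required for 50% inhibition of growth. TGI: total growth inhibition.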

What was measured:
Experiment in all cases: NCI anticancer screen, dose series, 48 h
[1] = system: 786-0 renal
[2] = system: A498 renal
[3] = system: ACHN renal
[4] = system: BT-549 breast
[5] = system: CAKI-1 renal
[6] = system: DU-145 prostate
[7] = system: EKVX NSCLC
[8] = system: HCC-2998 colon
[9] = system: HCT-116 colon
[10] = system: HCT-15 colon
[11] = system: HL-60(TB) leukemia
[12] = system: HOP-62 NSCLC
[13] = system: HOP-92 NSCLC
[14] = system: IGROV1 ovarian
[15] = system: K-562 leukemia
[16] = system: LOX IMVI melanoma
[17] = system: M14 melanoma
[18] = system: MALME-3M melanoma
[19] = system: MDA-MB-231 breast
[20] = system: MDA-MB-435
[21] = system: NCI-H522 lung
[22] = system: OVCAR-3 ovarian
[23] = system: OVCAR-4 ovarian
[24] = system: OVCAR-5 ovarian
[25] = system: PC-3 prostate
[26] = system: RXF 393 renal
[27] = system: SF-268 CNS
[28] = system: SF-295 CNS
[29] = system: SF-539 CNS
[30] = system: SK-MEL-2 melanoma
[31] = system: SK-MEL-28 melanoma
[32] = system: SK-MEL-5 melanoma
[33] = system: SK-OV-3 ovarian
[34] = system: SN12C renal
[35] = system: SNB-19 CNS
[36] = system: SNB-75 CNS
[37] = system: SR leukemia
[38] = system: T-47D breast
[39] = system: TK-10 renal
[40] = system: U251 CNS
[41] = system: UACC-257 melanoma
[42] = system: UACC-62 melanoma
[43] = system: UO-31 renal
[44] = system: A549 NSCLC
[45] = system: CCRF-CEM leukemia
[46] = system: COLO 205 colon
[47] = system: HT29 colon
[48] = system: KM12 colon
[49] = system: MCF7 breast
[50] = system: MOLT-4 leukemia
[51] = system: NCI-H226 lung
[52] = system: NCI-H23 lung
[53] = system: NCI-H460 lung
[54] = system: NCI/ADR-RES ovarian
[55] = system: SW-620 colon
[56] = system: RPMI-8226 leukemia

Cc1nnc([S-])o1.[Au+].c1ccc([PH+](c2ccccc2)c2ccccc2)cc1
GI50 [1]: 1640 nM
TGI [1]: 3000 nM
GI50 [2]: 1570 nM
TGI [2]: 2930 nM
GI50 [3]: 1710 nM
TGI [3]: 3080 nM
GI50 [4]: 1580 nM
TGI [4]: 2950 nM
GI50 [5]: 1470 nM
TGI [5]: 2800 nM
GI50 [6]: 1750 nM
TGI [6]: 3260 nM
GI50 [7]: 1810 nM
TGI [7]: 3240 nM
GI50 [8]: 1820 nM
TGI [8]: 3270 nM
GI50 [9]: 1600 nM
TGI [9]: 3010 nM
GI50 [10]: 1490 nM
TGI [10]: 3080 nM
GI50 [11]: 2990 nM
TGI [11]: 9120 nM
GI50 [12]: 1870 nM
TGI [12]: 3530 nM
GI50 [13]: 1640 nM
TGI [13]: 3030 nM
GI50 [14]: 1470 nM
TGI [14]: 2820 nM
GI50 [15]: 2380 nM
TGI [15]: > 100000 nM
GI50 [16]: 1630 nM
TGI [16]: 3000 nM
GI50 [17]: 1790 nM
TGI [17]: 3340 nM
GI50 [18]: 1600 nM
TGI [18]: 3060 nM
GI50 [19]: 1680 nM
TGI [19]: 3110 nM
GI50 [20]: 1620 nM
TGI [20]: 3020 nM
GI50 [21]: 595 nM
TGI [21]: 2030 nM
GI50 [22]: 1610 nM
TGI [22]: 2980 nM
GI50 [23]: 1590 nM
TGI [23]: 2950 nM
GI50 [24]: 1820 nM
TGI [24]: 3270 nM
GI50 [25]: 1590 nM
TGI [25]: 3070 nM
GI50 [26]: 1240 nM
TGI [26]: 2510 nM
GI50 [27]: 1620 nM
TGI [27]: 3310 nM
GI50 [28]: 1890 nM
TGI [28]: 3500 nM
GI50 [29]: 1630 nM
TGI [29]: 2990 nM
GI50 [30]: 1720 nM
TGI [30]: 3240 nM
GI50 [31]: 1510 nM
TGI [31]: 2860 nM
GI50 [32]: 1550 nM
TGI [32]: 2940 nM
GI50 [33]: 2280 nM
TGI [33]: 4170 nM
GI50 [34]: 1670 nM
TGI [34]: 3070 nM
GI50 [35]: 1610 nM
TGI [35]: 2980 nM
GI50 [36]: 1320 nM
TGI [36]: 2600 nM
GI50 [37]: 1210 nM
TGI [37]: > 100000 nM
GI50 [38]: 1870 nM
TGI [38]: 4930 nM
GI50 [39]: 1800 nM
TGI [39]: 3210 nM
GI50 [40]: 1500 nM
TGI [40]: 2860 nM
GI50 [41]: 1570 nM
TGI [41]: 3110 nM
GI50 [42]: 1350 nM
TGI [42]: 2700 nM
GI50 [43]: 1660 nM
TGI [43]: 3020 nM

CNCCCNc1c2cc(OC)ccc2nc2cccc([N+](=O)[O-])c12
GI50 [1]: 34.3 nM
TGI [1]: 306 nM
GI50 [2]: 63.7 nM
TGI [2]: 271 nM
GI50 [44]: 32 nM
TGI [44]: 247 nM
GI50 [4]: 186 nM
TGI [4]: 406 nM
GI50 [5]: 30.6 nM
TGI [5]: 128 nM
GI50 [45]: 17.3 nM
TGI [45]: 173 nM
GI50 [46]: 41.8 nM
TGI [46]: 237 nM
GI50 [6]: 45.4 nM
TGI [6]: 14800 nM
GI50 [7]: 274 nM
TGI [7]: 1150 nM
GI50 [9]: 25.5 nM
TGI [9]: 150 nM
GI50 [10]: 28.5 nM
GI50 [11]: 16.2 nM
GI50 [12]: 28.4 nM
TGI [12]: 81 nM
GI50 [13]: 23.2 nM
TGI [13]: 137 nM
GI50 [47]: 22.3 nM
TGI [47]: 80.6 nM
GI50 [14]: 33.8 nM
TGI [14]: 195 nM
GI50 [15]: 15.3 nM
TGI [15]: 44.9 nM
GI50 [48]: 43.1 nM
TGI [48]: 251 nM
GI50 [16]: 64.1 nM
TGI [16]: 354 nM
GI50 [17]: 21.1 nM
TGI [17]: 47.6 nM
GI50 [18]: 110 nM
TGI [18]: 315 nM
GI50 [49]: 23.4 nM
TGI [49]: 101 nM
GI50 [19]: 69.4 nM
TGI [19]: 672 nM
TGI [50]: 48.2 nM
GI50 [51]: 128 nM
TGI [51]: 385 nM
GI50 [52]: 26.9 nM
TGI [52]: 220 nM
GI50 [53]: 25 nM
TGI [53]: 103 nM
GI50 [54]: 444 nM
TGI [54]: 3470 nM
GI50 [22]: 234 nM
TGI [22]: 818 nM
GI50 [23]: 16.6 nM
TGI [23]: 52.8 nM
GI50 [24]: 24.6 nM
TGI [24]: 99.3 nM
TGI [25]: 277 nM
GI50 [27]: 56.5 nM
TGI [27]: 376 nM
GI50 [28]: 40.7 nM
TGI [28]: 258 nM
GI50 [29]: 132 nM
TGI [29]: 366 nM
GI50 [31]: 150 nM
TGI [31]: 650 nM
GI50 [32]: 19 nM
TGI [32]: 37.5 nM
GI50 [33]: 65 nM
TGI [33]: 670 nM
GI50 [34]: 86.4 nM
TGI [34]: 16500 nM
GI50 [35]: 123 nM
TGI [35]: 519 nM
GI50 [36]: 61.1 nM
TGI [36]: 224 nM
GI50 [37]: 25.3 nM
GI50 [55]: 36.9 nM
TGI [55]: 517 nM
TGI [39]: 378 nM
GI50 [41]: 173 nM
TGI [41]: 397 nM
GI50 [43]: 85.5 nM
TGI [43]: 275 nM

CCCCCCCCCCCCC/C=C/[C@H]1[C@@H](C(=O)OC)N1S(=O)c1ccc(C)cc1 (stereo partly specified)
TGI [1]: > 100000 nM
TGI [2]: > 100000 nM
TGI [3]: > 100000 nM
TGI [4]: > 100000 nM
TGI [45]: > 100000 nM
TGI [46]: > 100000 nM
TGI [6]: > 100000 nM
TGI [7]: > 100000 nM
TGI [9]: > 100000 nM
TGI [11]: 81300 nM
TGI [12]: > 100000 nM
TGI [13]: > 100000 nM
TGI [14]: > 100000 nM
TGI [15]: > 100000 nM
TGI [16]: > 100000 nM
TGI [18]: > 100000 nM
TGI [20]: > 100000 nM
TGI [50]: > 100000 nM
TGI [52]: > 100000 nM
TGI [21]: > 100000 nM
TGI [22]: > 100000 nM
TGI [25]: > 100000 nM
TGI [56]: > 100000 nM
TGI [30]: > 100000 nM
TGI [31]: > 100000 nM
TGI [32]: > 100000 nM
TGI [37]: > 100000 nM
TGI [55]: > 100000 nM
TGI [38]: > 100000 nM
TGI [39]: > 100000 nM
TGI [40]: > 100000 nM
TGI [41]: > 100000 nM
TGI [42]: > 100000 nM
TGI [43]: > 100000 nM
